Reference: patent US12377167B2, “Application of AuCs or substances containing AuCs in the preparation of drugs for preventing and/or treating glaucoma” (Shenzhen Profound-View Pharma Tech Co., Ltd, priority 2016, dated 2025)

Legend:
RGC-5 cells [1] = test: Sodium nitroprusside (SNP)-induced RGC-5 apoptosis model, CCK-8 cell viability; format: cell-based
Description: (§1) The cell viability was used as an index in the experiment of this embodiment.
RGC-5 cells in logarithmic growth phase were diluted with complete medium to get a cell suspension in a density of 5×10^4/mL. The suspension was inoculated 100 μL per well into a 96-well plate, and cultivated in an incubator with 5% CO2 at 37° C. […] The absorbance value of each well at 450 nm wave length was measured to evaluate the pre-protective effect of AuCs on SNP injury. […] The absorbance value of each well at 450 nm wave length was measured to evaluate the curative effect of AuCs on SNP injury. […]
RGC-5 cells in logarithmic growth phase were diluted with complete medium to get a cell suspension in a density of 5×10^4/mL. […] The absorbance value of each well at 450 nm wave length was measured to evaluate the pre-protective effect of AuCs on SNP injury. […]

Aβ(1-40) [2] = target: T1, Aβ(1-40) (Homo sapiens, UniProt P05067); test: AFM topography of Aβ(1-40) after 48 h co-incubation; format: biochemical; details: co-incubated for 48 h
T1 construct: Freeze-dried powder of amyloid polypeptide Aβ(1-40) (Invitrogen Corp.); purchased Invitrogen Corp
Description: Panel A is the AFM topography after Aβ(1-40) was incubated alone for 48 h. Panel B is an AFM topography after Aβ(1-40) was coincubated with L-NIBC for 48 h. Panel C and panel D are AFM topographies after Aβ(1-40) was coincubated with gold nanoparticles with an average particle size of 6.0 nm and 3.6 nm respectively (modified with L-NIBC) for 48 h. And panel E is an AFM topography after Aβ(1-40) was coincubated with AuCs in an average particle size of 1.8 nm (modified with L-NIBC) for 48 h.

Aβ(1-40) [3] = target: T1, Aβ(1-40); test: In vitro Aβ(1-40) aggregation kinetics, ThT fluorescent labeling method; format: biochemical; details: 20 μM Aβ(1-40); L-NIBC 1.0 and 10.0 ppm; gold nanoparticles up to 20.0 ppm
Description: As described above, Aβ plays an important role in the pathogenesis of glaucoma and is an important target for treatment of glaucoma based on the optic nerve protection mechanism. […] Moreover, the function is from AuCs other than ligand. […] Thioflavin T (abbreviation: ThT) is a dye specifically for dyeing amyloid fibers. […] When it encounters amyloid polypeptides or proteins with a fiber structure, it will immediately couple with the amyloid polypeptides or proteins and its fluorescence intensity will increase exponentially. Just because of this property, ThT is widely used as a marker to monitor amyloidosis of peptides or proteins. The fibrosis process of Aβ(1-40) is also a nucleation-controlled polymerization process. Therefore, the growth curve of Aβ(1-40) fiber measured by ThT fluorescent labeling method is mainly divided into three stages: Initial stage, growth stage and platform stage. The initial stage is mainly a stage when Aβ(1-40) undergoes conformational transition to form misfolding and then aggregates and nucleates. […] All the Aβ(1-40) PBS solutions for the experiments were prepared freshly. […] The samples were incubated continuously in a 96-well plate at 37° C. by ThT fluorescent labeling method, and monitored the fluorescence intensity by microplate reader once every 10 minutes.

RGC-5 cells [4] = test: NMDA-induced RGC-5 cell excitotoxicity model, CCK-8; format: cell-based; details: 250 μM NMDA, 0.01-10 ppm
Description: This embodiment used cell survival rate as an index.
RGC-5 cells in logarithmic growth phase were diluted with complete medium to get a cell suspension in a density of 5×10^4/mL. The suspension was inoculated 100 μL per well into a 96-well plate, and cultivated in an incubator with 5% CO2 at 37° C. One of administration ways in an experiment group is: The original culture medium was removed when the cells attached to the wells, and 50 μL test substances (the test substances were: three kinds of L-NIBC-modified AuCs in particle sizes of 2.6 nm, 1.8 nm or 1.1 nm, or four kinds of L-NIBC-modified gold nanoparticles in particle sizes of 18.2 nm, 10.1 nm, 6.0 nm or 3.6 nm, or L-NIBC molecules not bonded with AuCs or gold nanoparticles as reference) solutions at different concentrations prepared by maintenance medium were added to different wells to make the final concentration be 0.01, 0.05, 0.1, 0.5, 1, 5 and 10 ppm respectively, then 50 μL of NMDA (the final concentration was 250 μM) was added to the administration group and model group after 2 hours' pretreatment. […] The absorbance value of each well at 450 nm wave length was measured to evaluate the pre-protective effect of AuCs on NMDA injury. […] The absorbance value of each well at 450 nm wave length was measured to evaluate the curative effect of AuCs on NMDA injury. […]

RGC-5 cells [5] = test: H2O2-induced RGC-5 cell oxidative stress injury model, CCK-8 cell viability; format: cell-based
Description: as §1
RGC-5 cells in logarithmic growth phase were diluted with complete medium (MEM+10% FBS+1% penicillin-streptomycin) to get a cell suspension in a density of 5×10^4/mL. The suspension was inoculated 100 μL per well into a 96-well plate, and cultivated in an incubator with 5% CO2 at 37° C. One of administration ways in an experiment group is: The original culture medium was removed when the cells attached to the wells, and 50 μL test substances (the test substances were: three kinds of L-NIBC-modified AuCs in particle sizes of 2.6 nm, 1.8 nm or 1.1 nm, or four kinds of L-NIBC-modified gold nanoparticles in particle sizes of 18.2 nm, 10.1 nm, 6.0 nm or 3.6 nm, or L-NIBC molecules not bonded with AuCs or gold nanoparticles as reference) solutions at different concentrations prepared by maintenance medium (DMEM medium+2% FBS+1% penicillin-streptomycin) were added to different wells to make the final concentration be 0.01, 0.05, 0.1, 0.5, 1, 5 and 10 ppm respectively, then 50 μL of H2O2 (the final concentration was 100 μM) was added to the administration group and model group after 2 hours' pretreatment. The cells were incubated for 24 h, then 10% CCK-8 was added to each well and incubated for 4 h. […]

T1 sequence (P05067 672-711 limits assumed): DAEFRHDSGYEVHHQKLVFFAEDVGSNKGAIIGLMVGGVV

CC(C)C(=O)N[C@@H](CS)C(=O)O [L-NIBC, N-isobutyryl-L-cysteine]
viability at 10 ppm (RGC-5 cells [1]; RGC5, 10 ppm, 700 μM SNP, 24 h, read-out: cell viability relative to the blank control group (set to be 100%)): 52.8 ± 8% | effect on cell viability / SNP-induced RGC apoptosis (RGC-5 cells [1]; SNP-injured RGC cell model, CCK-8): did not have an obvious protective effect | Aβ(1-40) fibers in AFM topography (Aβ(1-40) [2]): no obvious effect on the formation of Aβ(1-40) fibers | effect on Aβ(1-40) amyloidosis kinetics (Aβ(1-40) [3]): no obvious effect on Aβ(1-40) amyloidosis kinetics | effect on cell viability / neurotransmitter mediated excitatory RGC apoptosis (RGC-5 cells [4]): did not have an obvious effect | effect on cell viability / RGC apoptosis triggered by oxidative stress (RGC-5 cells [5]; H2O2-injured RGC cell model, CCK-8): did not have an obvious effect | viability at 10 ppm (RGC-5 cells [5]; RGC5, 10 ppm, H2O2, 24 h, read-out: cell viability relative to the blank control group (set to be 100%)): 47.5 ± 6.6%
